Literature values, collected in patent US10285382B2 (priority 2017, dated 2019).
Where two headings read alike, the source gives them in different places.

How the values were obtained:
Settings in all cases: cited from earlier work
Salmonella = tested on: Salmonella
shell surface bacteria = tested on: shell surface bacteria
broiler eggs = tested on: broiler eggs
[1] = dipping eggs in 6% H2O2 solution twice, Padron (1995)

OO [H2O2, hydrogen peroxide]
treated eggs remaining contaminated (Salmonella; […] solution applied with a vacuum and a surfactant, Cox et al.): 30% | reduction of the number of Salmonella in eggshell membranes (Salmonella; [1]): 95% | reduction of the numbers of positive eggs (Salmonella; [1]): 55% | log reduction in bacterial counts (cfu/egg) (shell surface bacteria; 3% solution combined with ultraviolet light, Wells et al. (2010)): ≤ 3 log | H2O2 concentration required to disinfect shell surfaces (shell surface bacteria; Sheldon and Brake (1991)): 5 % (vol/vol) | effect on hatchability (broiler eggs; broiler eggs, […] fogged, Bailey et al. (1996)): did not significantly reduce, or improve | effect on hatchability (broiler eggs; in vivo): no adverse effect
